{
  "source": "paper PMC11232110",
  "about": "(RSC Advances, 2024)",
  "target": "enoyl acyl carrier protein reductase (InhA) (Mycobacterium tuberculosis, UniProt P9WGR1)",
  "sequence (P9WGR1 whole entry, looked up)": "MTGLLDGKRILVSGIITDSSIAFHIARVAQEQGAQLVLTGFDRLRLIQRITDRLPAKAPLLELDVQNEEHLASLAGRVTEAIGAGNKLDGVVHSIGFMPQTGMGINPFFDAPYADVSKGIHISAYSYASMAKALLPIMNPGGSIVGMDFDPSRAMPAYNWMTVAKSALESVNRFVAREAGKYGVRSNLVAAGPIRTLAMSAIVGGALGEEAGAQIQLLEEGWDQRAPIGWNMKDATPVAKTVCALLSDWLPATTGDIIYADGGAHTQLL",
  "assay": "InhA enzyme inhibition assay",
  "type": "biochemical",
  "data": [
    {"compound": "O=c1cc(-c2ccccc2)c2cc(Cl)c(OCc3nnn(CCN4CCOCC4)n3)cc2o1", "note": "[4c, 7-((2-(2-Morpholinoethyl)-2H-tetrazol-5-yl)methoxy)-6-chloro-4-phenyl-2H-chromen-2-one]", "values": [
      {"measurement": "IC50", "result": "565 ± 20", "unit": "nM"}
    ]}
  ]
}
